For experiment [1], the target named is T1, AMPKα2 complexes in primary hepatocytes (Mus musculus, UniProt O54950+Q8BRK8).
T1 construct: AMPKα1 or AMPKα2 complexes were immunoprecipitated from hepatocyte extracts; endogenous in cells; host or cells: primary mouse hepatocytes
Description: Isoform-specific immunoprecipitate kinase assay from hepatocytes. The experiment is classed as cell-based. The conditions noted are these: 1 hr; washed immunoprecipitates. As for the experimental part:
Figure 4 The C2 Prodrug, C13, Potently Activates AMPK in Mouse Primary Hepatocytes (A) Isolated mouse hepatocytes were incubated with vehicle or the indicated concentrations of C13 for 1 hr. AICAR (0.5 mM) was included as a positive control. Cell lysates were analyzed using western blotting with the indicated antibodies. (B) AMPKα1 or AMPKα2 complexes were immunoprecipitated from hepatocyte extracts prepared as described in (A) and assayed for kinase activity using 0.2 mM AMARA and 0.1 mM ATP. Results are expressed as the mean Pi incorporated in picomoles per minute-milligram ± SD. […] Lysates were analyzed using western blotting with the indicated antibodies. (D) Mouse hepatocytes were treated with the indicated compounds for 1 hr, and adenine nucleotide ratios were determined using capillary electrophoresis of perchloric acid extracts. […] Lysates were analyzed using western blotting with the indicated antibodies. […] Lysates were analyzed using western blotting with the indicated antibodies. […]
AMPK phosphotransferase activity was assayed in reactions (50 μl) containing 50 mM HEPES, pH 7.4, 10 mM MgCl2, 0.1 mM EGTA, 1 mM DTT, 0.01% BRIJ-35, 100 μM [γ-^32P]ATP (∼250 CPM⋅pmol^−1) and 200 μM AMARA (AMARAASAAALARRR). […] Washed filters were dried and [^32P] incorporation determined by Cherenkov counting. […]

The subject of experiment [2] is isolated, full-length AMPKα1 and α2 subunits. Kind of experiment: Isolated AMPKα subunit activity assay. The experiment is classed as biochemical, human. The following applies: C2 0–1000 nM, conditions as Figure 1B. The method, then:
Supplemental Figure Legends:
Figure S1, related to Figures 1-3. Subunit composition of AMPK preparations used in this study. (A) Heterotrimeric AMPK complexes (10 ng) produced in both Sf9 (Sigma and Signalchem) and E.coli (in our laboratory) were analysed by Western blotting using isoform specific antibodies. Note that both the α2/α1-HOOK and α2/α1-LOOP chimeras are no longer recognised by the anti-α2 antibody as the epitope has been replaced (see Fig S4). (B) Heterotrimeric AMPK α2/α1 chimeric complexes expressed in E.coli (2 μg) were separated by SDS-PAGE and stained with Coomassie G-250. Arrows indicate the position of the […]
Figure S2, related to Figure 1. C2 has negligible effects on a panel of 138 protein kinases.
Kinase inhibition screen was performed by the International Centre for Kinase profiling (Dundee). Assays were performed in duplicate using 10 µM C2 and are representative of two independent screens. Results are shown in rank order as mean % activity compared with controls in the absence of compound ± SD. […]
Figure S3, related to Figure 2. […] Results are expressed as mean Pi incorporated in nmol.min-1.mg-1 ± SD. […] Results are expressed as fold increase in activity relative to controls in the absence of compound ± SD.
(E) C2 and AMP displace a GST-AMPKγ2 subunit fusion from ATP-γ-Sepharose. […] The presence of eluted AMPKγ2 was analysed by SDS-PAGE and staining with colloidal Coomassie. […]

The record followed here is PMC4104029, “Mechanism of Action of Compound-13: An α1-Selective Small Molecule Activator of AMPK” (Chemistry & Biology, 2014).

T1 sequence (Q8BRK8 whole entry): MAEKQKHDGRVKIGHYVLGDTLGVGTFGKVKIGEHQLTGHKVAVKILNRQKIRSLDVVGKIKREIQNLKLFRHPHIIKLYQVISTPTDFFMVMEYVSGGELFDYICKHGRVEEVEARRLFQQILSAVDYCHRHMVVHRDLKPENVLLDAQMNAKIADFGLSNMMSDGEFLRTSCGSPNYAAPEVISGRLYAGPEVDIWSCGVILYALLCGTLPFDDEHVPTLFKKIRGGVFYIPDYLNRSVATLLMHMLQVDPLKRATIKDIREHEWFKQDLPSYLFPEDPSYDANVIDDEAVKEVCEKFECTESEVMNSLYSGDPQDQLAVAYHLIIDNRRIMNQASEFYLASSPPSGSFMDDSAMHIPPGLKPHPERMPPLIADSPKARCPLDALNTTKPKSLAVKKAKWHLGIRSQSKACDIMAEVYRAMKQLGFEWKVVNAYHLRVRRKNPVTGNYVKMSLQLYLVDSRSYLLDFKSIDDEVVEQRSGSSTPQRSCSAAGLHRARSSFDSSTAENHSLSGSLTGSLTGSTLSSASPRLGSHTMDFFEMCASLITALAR
T1 sequence (Q9R078 2-270 partner limits assumed): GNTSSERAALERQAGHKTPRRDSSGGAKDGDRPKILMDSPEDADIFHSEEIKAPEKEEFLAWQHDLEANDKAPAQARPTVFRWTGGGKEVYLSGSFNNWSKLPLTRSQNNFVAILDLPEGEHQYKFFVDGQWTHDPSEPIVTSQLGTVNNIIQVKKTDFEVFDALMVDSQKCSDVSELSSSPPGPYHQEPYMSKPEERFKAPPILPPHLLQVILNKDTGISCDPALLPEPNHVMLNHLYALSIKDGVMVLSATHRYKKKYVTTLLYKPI
T1 sequence (O54950 whole entry): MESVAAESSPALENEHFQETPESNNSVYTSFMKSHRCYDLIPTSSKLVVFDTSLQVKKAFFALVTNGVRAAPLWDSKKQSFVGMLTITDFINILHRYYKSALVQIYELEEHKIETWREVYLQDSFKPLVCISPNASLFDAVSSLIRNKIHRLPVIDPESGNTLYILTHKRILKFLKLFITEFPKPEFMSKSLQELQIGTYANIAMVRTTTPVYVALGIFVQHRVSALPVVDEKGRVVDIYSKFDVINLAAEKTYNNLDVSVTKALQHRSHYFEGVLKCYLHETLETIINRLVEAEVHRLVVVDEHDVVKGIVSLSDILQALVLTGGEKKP

Regarding `CC(C)C(=O)OCOP(=O)(OCOC(=O)C(C)C)c1ccc(C2=NOC(=O)C2)o1` [Compound C13], the “concentration above which activation was evident” value in experiment [1] is “above 30 μM”.

Consider `O=P(O)(O)c1ccc(-c2cc(O)on2)o1` [Compound C2, 5-(5-hydroxyl-isoxazol-3-yl)-furan-2-phosphonic acid], for which the effect on activity entry in experiment [2] is reported as “no effect”.
